Measured values published in patent publication EP4682149A1 (Prime Gene Therapeutics Co., Ltd., priority 2023, dated 2024).
In brackets after ≈: the same amount, converted by molar mass.

Experiments:
JAK1/2/3 = test: Enzymatic activity (IC50) test, Lance Ultra TR-FRET; conditions: JAK1/2/3 kinase platform; kinase not given
[1] = Pharmacokinetic (PK) determination in adult Beagle dogs; type: in vivo
Description: Healthy adult male Beagle dogs were obtained from Beijing Marshall Biotechnology Co., Ltd. Three groups were divided into this study and administered via oral gavage at a dose of 19.5 mg/kg. Animals receiving oral gavage were fasted overnight and from 10 hours before to 4 hours after administration. Blood samples were collected 15 minutes, 30 minutes, 45 minutes, 1 hour, 1.5 hours, 3 hours, 4 hours, 6 hours, 8 hours, and 24 hours after gavage. Blood samples (1 mL) were collected from the forelimb vein or other suitable venous sampling methods and placed in labeled EDTA-K2 anticoagulant tubes. After gentle inversion to thoroughly mix the anticoagulant with the blood, the tubes were immediately placed on wet ice. Plasma was separated by centrifugation within 1 hour of blood collection in the condition of 4°C, 2200g, and 10 minutes. The separated plasma was placed in labeled EP tubes. Plasma samples were immediately stored in an ultra-low temperature freezer until analysis. Plasma samples should be stored in a refrigerator at -70°C before testing. Plasma samples were extracted using protein precipitation, and the extracts were analyzed by LC/MS/MS.

[2] = Stability investigation (HPLC purity at 220 nm and XRD); type: physicochemical; conditions: for chemical stability / crystal form change: 40°C/75%RH and 25°C/60%RH for 7 days
Description: The analysis method is as follows: Octadecylsilane bonded silica gel was used as the filler (Kromasil C 18 4.6 mm × 250 mm, 5 µm); 0.01 mol/L potassium dihydrogen phosphate solution (pH was adjusted to 3.0 with phosphoric acid) was used as mobile phase A, and methanol was used as mobile phase B. Gradient elution was performed according to the table below; the detection wavelength was 220 nm; the column temperature was 40°C; the flow rate was 1.0 ml/min; the injection volume was 10 µl, and the HPLC purity was calculated by the area normalization method.
Appropriate amounts of Form III, IV, and V were weighed in sample bottles and stored uncovered at 80°C, 40°C/75% RH, and 25°C/60% RH for 7 days. Samples were collected at 0, 1, 3, and 7 days for HPLC and XRD analysis. Table 7 Stability test results of Form III, IV and V

[3] = Competitive slurry test (XRD of the solid); type: physicochemical; conditions: for form transformation in competitive slurry: ethanol/water (1/1) (80°C), acetonitrile (70°C), acetonitrile/water (70°C)
Description: The relative stability of Form II and Form III was investigated by competitive slurry test. Approximately 5 mg of Form II and Form III were weighed, mixed, and then added in 1/1 ratio of methanol/n-heptane, ethanol and ethyl acetate, respectively, to prepare a suspension. The suspension was stirred at room temperature for several hours, then centrifuged and the solid was analyzed by XRD.
Competitive slurry studies were conducted to investigate the relative stability of Forms III, IV, and V. 5 mg of Forms III, IV, and V were weighed and mixed uniformly. Suspensions were prepared respectively in ethanol (80°C), ethanol/water (1/1) (80°C), water (60°C), water (25°C), acetonitrile (70°C), and acetonitrile/water (1/1) (70°C). The suspensions were stirred for 12 hours, and the solids were centrifuged and analyzed by XRD. Table 6: Competitive slurry results of Forms III, IV and V

[4] = Solubility determination in buffer solutions (HPLC); type: physicochemical; conditions: for solubility: 37°C
Description: Appropriate amounts of Forms III, IV, and V were weighed and added to buffer solutions with pH 4.5 and 6.8 to prepare a suspension at 5 mg/mL. The resulting suspension was stirred at 37°C, and samples were collected and analyzed at 5, 30, 60, and 240 minutes. Use a syringe to draw approximate 1 mL of the suspension, filter it through a membrane filter, and dilute it several times before testing the resulting filtrate with HPLC, using the area normalization method to determine the solubility. Table 8 Tests of different crystal forms at various pH values

[5] = Determination of bioavailability in adult SD rats; type: in vivo; conditions: Sprague-Dawley, rat, plasma, female SD rats
Description: Healthy adult female Sprague-Dawley rats were obtained from Beijing Weitong Lihua Laboratory Animal Technology Co., Ltd. The study was conducted in two phases: first, animals received a single intravenous injection of 1 mg/kg; second, one week later, the same group received a single oral gavage of the suspension at a dose of 10 mg/kg. Animals receiving oral gavage were fasted overnight and from 10 hours before to 4 hours after administration. Animals in the intravenous group were not restricted to food. Blood samples were collected at 0.083, 0.25, 0.5, 1, 2, 4, 6, 8, and 24 hours after administration for the intravenous group and at 0.25, 0.5, 1, 2, 4, 8, and 24 hours after administration for the oral group. After isoflurane anesthesia by using a small animal anesthesia machine, 0.4 ml of whole blood was obtained from the retinal venous plexus. The sample was centrifuged at 4000 rpm for 20 minutes at 4°C. Plasma was separated and placed in labeled EP tubes. Plasma samples were immediately stored in an ultra-low temperature freezer until analysis. Plasma samples should be stored in a refrigerator at -70°C before testing. Plasma samples were extracted using protein precipitation, and the extracts were analyzed by LC/MS/MS.

[6] = male Beagle dogs, oral gavage 19.5 mg/kg
[7] = male Beagle dogs, oral gavage 19.5 mg/kg, 19.5 mg/kg

Row | Compound | AUC 0-inf [1, 7] [ng·h/mL] | AUC 0-t [1, 7] [ng·h/mL] | C max [1, 7] [ng/mL] | 220nm (HPLC purity) ([2]; 0 days) [%] | 220nm (HPLC purity) ([2]; 25°C/60%RH, 3 days, uncovered) [%] | 220nm (HPLC purity) ([2]; 25°C/60%RH, 7 days, uncovered) [%] | 220nm (HPLC purity) ([2]; 40°C/75%RH, 3 days, uncovered) [%] | 220nm (HPLC purity) ([2]; 40°C/75%RH, 7 days, uncovered) [%] | chemical stability ([2]; 80°C) | crystal form change ([2]; 80°C) | 220nm (HPLC purity) ([2]; 80°C, 1 day, uncovered) [%] | 220nm (HPLC purity) ([2]; 80°C, 3 days, uncovered) [%] | 220nm (HPLC purity) ([2]; 80°C, 7 days, uncovered) [%] | solubility ([4]; PH=4.5 buffer, 5 min) [µg/mL] | solubility ([4]; PH=4.5 buffer, 30 min) [µg/mL] | solubility ([4]; PH=4.5 buffer, 60 min) [µg/mL] | solubility ([4]; PH=4.5 buffer, 240 min) [µg/mL] | solubility ([4]; pH=6.8 buffer, 5 min) [µg/mL] | solubility ([4]; pH=6.8 buffer, 30 min) [µg/mL] | solubility ([4]; pH=6.8 buffer, 60 min) [µg/mL] | other results
1 | N#CCC1(n2cc(-c3ncnc4[nH]ccc34)cn2)CN(C2CCN(C(=O)c3ccnc(C(F)(F)F)c3F)CC2)C1 [Itacitinib, reference compound] | – | – | – | – | – | – | – | – | – | – | – | – | – | – | – | – | – | – | – | – | IC50 (JAK1/2/3): < 10 nM
2 | N#CCC1(n2cc(-c3ncnc4[nH]ccc34)c(N)n2)CN(C2CCN(Cc3ccnc(C(F)(F)F)c3F)CC2)C1 [compound of formula I (amorphous form), 2-(3-(3-amino-4-(7H-pyrrolo[2,3-d]pyrimidin-4-yl)-1H-pyrazol-1-yl)-1-(1-(3-fluoro-2-(trifluoromethyl)isonicotinyl)piperidin-4-yl)azetidin-3-yl)acetonitrile] | – | – | – | – | – | – | – | – | – | – | – | – | – | – | – | – | – | – | – | – | IC50 (JAK1/2/3): < 10 nM
3 | N#CCC1(n2cc(-c3ncnc4[nH]ccc34)c(N)n2)CN(C2CCN(C(=O)c3ccnc(C(F)(F)F)c3F)CC2)C1 [listing 1 of 3 here] | 27789 | 27750 | 6197 | 99.57 | 99.59 | 99.63 | 99.53 | 99.63 | relatively stable | did not change | 99.57 | 99.60 | 99.57 | 47.1 (≈ 82.8 µM) | 65.6 (≈ 115 µM) | 70 (≈ 123 µM) | 73.4 (≈ 129 µM) | 24.7 (≈ 43.4 µM) | 37.2 (≈ 65.4 µM) | 40.2 (≈ 70.7 µM) | pharmacokinetic properties after PO administration ([1]; comparison of the crystal forms): better pharmacokinetic properties; Tmax [1, 6]: 1.00 h; t 1/2 [1, 7]: 2.63 h; relative stability of the forms ([3]; conclusion from competitive slurry of Forms III, IV, V): the most stable of the five forms; solubility relative to Form V ([4]; pH = 4.5 (postprandial gastric juice), 240 min): twice that of Form V; solubility relative to Form V ([4]; pH = 6.8 (simulated intestinal fluid), 240 min): twice that of Form V; solubility ([4]; pH=6.8 buffer, 240 min): 40.2 µg/mL (≈ 70.7 µM); AUC 0-inf ([5]; IV (1 mg/kg)): 456 ng·h/mL; half-life ([5]; IV (1 mg/kg)): 0.61 h; clearance ([5]; IV (1 mg/kg), read-out: Cl s,app): 37.7 mL/min/kg; Vd ([5]; IV (1 mg/kg), read-out: VZ): 1.5 L/kg; bioavailability ([5]; PO (10 mg/kg) vs IV (1 mg/kg)): 17%; AUC 0-inf ([5]; PO (10 mg/kg), suspension): 783 ng·h/mL; Cmax ([5]; PO (10 mg/kg), suspension): 475 ng/mL; Tmax ([5]; PO (10 mg/kg), suspension): 0.5 h; half-life ([5]; PO (10 mg/kg), suspension): 1.9 h
4 | N#CCC1(n2cc(-c3ncnc4[nH]ccc34)c(N)n2)CN(C2CCN(C(=O)c3ccnc(C(F)(F)F)c3F)CC2)C1 [listing 2 of 3 here] | 8431 | 8354 | 2440 | 98.02 | 98.10 | 97.87 | 98.02 | 98.01 | relatively stable | did not change | 98.05 | 98.03 | 98.02 | 11.2 (≈ 19.7 µM) | 25.8 (≈ 45.4 µM) | 28.9 (≈ 50.8 µM) | 35.6 (≈ 62.6 µM) | 7.6 (≈ 13.4 µM) | 13.3 (≈ 23.4 µM) | 16 (≈ 28.1 µM) | Tmax [1, 6]: 1.00 h; t 1/2 [1, 7]: 2.86 h; form transformation in competitive slurry [3]: transformed into Form IV; solubility ([4]; pH=6.8 buffer, 240 min): 19 µg/mL (≈ 33.4 µM)
5 | N#CCC1(n2cc(-c3ncnc4[nH]ccc34)c(N)n2)CN(C2CCN(C(=O)c3ccnc(C(F)(F)F)c3F)CC2)C1 [listing 3 of 3 here] | 13248 | 13174 | 4057 | 99.83 | 99.90 | 99.95 | 99.89 | 99.90 | relatively stable | did not change | 99.90 | 99.89 | 99.91 | 41.3 (≈ 72.6 µM) | 60.1 (≈ 106 µM) | 65.5 (≈ 115 µM) | 84 (≈ 148 µM) | 11.2 (≈ 19.7 µM) | 29.9 (≈ 52.6 µM) | 33.2 (≈ 58.4 µM) | Tmax ([1]; dog, plasma, male Beagle dogs, oral gavage 19.5 mg/kg, read-out: Tmax): 1 h; half-life ([1]; male, beagle, dog, plasma, po, 19.5 mg/kg, male Beagle dogs, oral gavage 19.5 mg/kg): 2.45 h; relative stability of Form II and Form III ([3]; Form II and Form III mixed, methanol/n-heptane 1/1, ethanol, ethyl acetate, room temperature, several hours, XRD): more stable than Form II; form transformation in competitive slurry [3]: transformed into Form IV; solubility ([4]; pH=6.8 buffer, 240 min): 41.5 µg/mL (≈ 73 µM)
